Source: the CheMixHub viscosity set

Assay: xn = mol fraction of the nth substance listed

C=CC[P+](c1ccccc1)(c1ccccc1)c1ccccc1.[Br-] + OCCOCCOCCO
viscosity [mPa·s], 100 kPa
Conditions	293.15 K	298.15 K	303.15 K	308.15 K	313.15 K	318.15 K	323.15 K
x1 = 0.05879	76.63	57.94	44.82	35.26	28.28	22.99	18.97
x1 = 0.0909	95.29	71.69	54.83	42.76	33.94	27.41	22.42
x1 = 0.2	233.7	166.5	121.6	90.91	69.36	53.99	42.73

BrCCBr + c1ccccc1
101.33 kPa
Conditions	viscosity [mPa·s]
298.15 K, x1 = 0.0999	0.6395
298.15 K, x1 = 0.2016	0.6889
298.15 K, x1 = 0.312	0.8229
298.15 K, x1 = 0.4109	0.8428
298.15 K, x1 = 0.5099	0.8941
298.15 K, x1 = 0.6073	1.034
298.15 K, x1 = 0.7101	1.116
298.15 K, x1 = 0.8038	1.253
298.15 K, x1 = 0.9005	1.422
308.15 K, x1 = 0.1052	0.5588
308.15 K, x1 = 0.2078	0.6034
308.15 K, x1 = 0.3146	0.6379
308.15 K, x1 = 0.4086	0.7026
308.15 K, x1 = 0.5068	0.7767
308.15 K, x1 = 0.6088	0.8569
308.15 K, x1 = 0.7019	0.961
308.15 K, x1 = 0.8028	1.128
308.15 K, x1 = 0.9019	1.219

Brc1ccccc1 + c1ccccc1
101 kPa
Conditions	viscosity [mPa·s]
298.15 K, x1 = 0.0867	0.636
298.15 K, x1 = 0.116	0.649
298.15 K, x1 = 0.8	0.96
303.15 K, x1 = 0.086	0.61
303.15 K, x1 = 0.176	0.653
303.15 K, x1 = 0.268	0.7
303.15 K, x1 = 0.362	0.742
303.15 K, x1 = 0.46	0.785
303.15 K, x1 = 0.561	0.827
303.15 K, x1 = 0.665	0.867
303.15 K, x1 = 0.774	0.909
303.15 K, x1 = 0.884	0.951
308.15 K, x1 = 0.0867	0.558
308.15 K, x1 = 0.116	0.568
318.15 K, x1 = 0.0867	0.492
318.15 K, x1 = 0.116	0.504
323.15 K, x1 = 0.0867	0.461
323.15 K, x1 = 0.116	0.47
323.15 K, x1 = 0.8	0.711

C1COCCO1 + c1ccccc1
303.15 K, 101 kPa
Conditions	viscosity [mPa·s]
x1 = 0.1009	0.603
x1 = 0.104	0.599
x1 = 0.207	0.644
x1 = 0.3017	0.687
x1 = 0.309	0.686
x1 = 0.4005	0.736
x1 = 0.411	0.733
x1 = 0.4969	0.787
x1 = 0.511	0.779
x1 = 0.6	0.841
x1 = 0.61	0.828
x1 = 0.7019	0.895
x1 = 0.709	0.882
x1 = 0.8015	0.961
x1 = 0.807	0.937
x1 = 0.904	0.991

CC(C)[N+](=O)[O-] + c1ccccc1
293.15 K, 101.33 kPa
Conditions	viscosity [mPa·s]
x1 = 0.0983	0.631
x1 = 0.2123	0.62
x1 = 0.2863	0.619
x1 = 0.4048	0.622
x1 = 0.5002	0.631
x1 = 0.5981	0.641
x1 = 0.7032	0.661
x1 = 0.7847	0.683
x1 = 0.908	0.731

COC(=O)CC(=O)OC + c1ccccc1
303.15 K, 101 kPa
Conditions	viscosity [mPa·s]
x1 = 0.0794	0.6916
x1 = 0.1634	0.8208
x1 = 0.2505	0.9519
x1 = 0.3426	1.078
x1 = 0.4381	1.206
x1 = 0.5395	1.341
x1 = 0.6457	1.456
x1 = 0.7579	1.58
x1 = 0.8751	1.696

COc1ccccc1O + c1ccccc1
303.15 K, 101 kPa
Conditions	viscosity [mPa·s]
x2 = 0.1	3.4
x2 = 0.2	2.49
x2 = 0.3	1.97
x2 = 0.4	1.57
x2 = 0.5	1.29
x2 = 0.6	1.04
x2 = 0.7	0.873
x2 = 0.8	0.742
x2 = 0.9	0.641

Ic1ccccc1 + c1ccccc1
viscosity [mPa·s], 101 kPa
Conditions	298.15 K	308.15 K	318.15 K	323.15 K
x1 = 0.0668	0.646	0.565	0.499	0.469
x1 = 0.0896	0.66	0.578	0.512	0.478
x1 = 0.8	1.274	–	–	0.917

COc1ccccc1O + c1ccncc1
303.15 K, 101 kPa
Conditions	viscosity [mPa·s]
x2 = 0.1	5.04
x2 = 0.2	5.38
x2 = 0.25	5.4
x2 = 0.27	5.42
x2 = 0.3	5.4
x2 = 0.4	4.94
x2 = 0.5	4
x2 = 0.6	3.3
x2 = 0.7	2.07
x2 = 0.8	1.48
x2 = 0.9	1.09
